ChEMBL document CHEMBL5727720, “Bruton's tyrosine kinase inhibitors” (2020)

The molecules below were run against Tyrosine-protein kinase BTK (Homo sapiens, UniProt Q06187) (assay: Kinase Assay: Measurements were performed in a reaction volume of 15 μL using 384-well assay plates. Kinase enzyme, inhibitor, ATP and 1 μM peptide substrate were incubated in a reaction buffer compose of Hepes 50 mM (pH7.0), NaN3 0.02%, BSA 0.01%, Orthocanadate 0.1 mM. After one hour, the kinase reaction was quenched by the addition of […] antibody and XL-665 in 1×Detection buffer containing 60 mM EDTA (Cisbio), and the mixture was allowed to incubate for one hour. The HTRF signal was measured on a multimode plate reader (EnVision® Multilabel Reader, Perkin Elmer) with an excitation wavelength (λEx) of 330 nm and detection wavelengths (λEm) of 615 and 665 nm. Activity was determined by the ratio of the fluorescence at 665 nm to that at 615 nm. For each compound, enzyme activity as measured at various concentrations of compound, Negative control reactions were performed in the absence of inhibitor in two replicates and eight no enzyme controls.).
Sequence of Tyrosine-protein kinase BTK (Q06187 whole entry): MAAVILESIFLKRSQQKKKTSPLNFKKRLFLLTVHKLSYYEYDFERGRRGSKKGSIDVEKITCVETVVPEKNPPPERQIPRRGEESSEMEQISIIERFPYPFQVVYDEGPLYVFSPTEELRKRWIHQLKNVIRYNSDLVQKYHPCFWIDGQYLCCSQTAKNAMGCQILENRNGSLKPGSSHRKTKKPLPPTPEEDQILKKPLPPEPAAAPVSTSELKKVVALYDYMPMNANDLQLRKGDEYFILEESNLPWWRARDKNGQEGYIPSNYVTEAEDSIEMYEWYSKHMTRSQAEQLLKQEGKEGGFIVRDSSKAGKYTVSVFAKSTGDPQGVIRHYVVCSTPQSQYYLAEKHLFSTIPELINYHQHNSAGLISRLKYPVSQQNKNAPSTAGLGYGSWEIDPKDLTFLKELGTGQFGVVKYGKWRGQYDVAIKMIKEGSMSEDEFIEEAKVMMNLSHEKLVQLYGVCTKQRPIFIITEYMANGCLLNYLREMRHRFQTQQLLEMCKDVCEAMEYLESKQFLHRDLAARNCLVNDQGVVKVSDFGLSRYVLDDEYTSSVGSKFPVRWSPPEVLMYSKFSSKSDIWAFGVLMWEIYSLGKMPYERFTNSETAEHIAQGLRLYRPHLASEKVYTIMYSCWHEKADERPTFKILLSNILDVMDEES
With `C=CC(=O)N1CCC[C@@H](n2nc(-c3ccc(Oc4cccc(OC)c4Cl)cc3)c3cncc(OC)c32)C1` the IC50 was less than 10 nM.
`C=CC(=O)N1CCC[C@@H](n2nc(-c3ccc(Oc4cccc(OC)c4Cl)cc3)c3cncc(OC4CCOC4)c32)C1` (some centres not stated) gave an IC50 of less than 10 nM.
Work on `C=CC(=O)N1CCC[C@@H](n2nc(-c3ccc(Oc4cccc(OC)c4Cl)cc3)c3cncc(OC(C)C)c32)C1` yielded an IC50 of less than 10 nM.
Molecule `C=CC(=O)N1CC[C@@H](n2nc(-c3ccc(Oc4cccc(OC)c4Cl)cc3)c3cncc(OCC)c32)C1` has an IC50 of less than 10 nM.
Molecule `C=CC(=O)N1CCC[C@@H](n2nc(-c3ccc(Oc4cccc(OC)c4Cl)cc3)c3cncc(OCCCC)c32)C1` has an IC50 of less than 10 nM.
Work on `C=CC(=O)N1CCC[C@@H](n2nc(-c3ccc(Oc4cccc(OC)c4Cl)cc3)c3cncc(OCCC)c32)C1` yielded an IC50 of less than 10 nM.
Molecule `C=CC(=O)N1CCC[C@@H](n2nc(-c3ccc(Oc4cccc(OC)c4Cl)cc3)c3cncc(OCC)c32)C1` has an IC50 of less than 10 nM.
